Where a name gives a salt, the structure may show the parent alone. Read-outs that look alike come from different tables or passages of the source.
Tests used:
[1] = system: erythroid progenitor cells (EPCs); test: Fetal hemoglobin (HbF) ELISA in day 7 erythroid progenitor cells; assay type: cell-based, human; conditions: HbF ELISA, day 7 EPCs, 5 days; for EC50: Homo sapiens, Erythroid progenitor cell, read-out: EPC ELISA (pEC50 category) (converted);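 for all read-outs here: for fetal hemoglobin induction normalized to vehicle-treated cells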
Method in brief: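 Read-out was OD450 from an HRP/TMB sandwich ELISA on lysates, normalized to DMSO-only control wells. Thawed day 7 EPCs from human marrow CD34+ cells had been treated for 5 days at 37° C with Compound A, 22 concentrations […].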

DNMT1 = DNMT1 (Homo sapiens, UniProt P26358); test: DNMT1 biochemical activity, breaklight assay and/or SPA assay
[2] = binned activity in either the breaklight or the SPA assay

Sequence of DNMT1 (P26358 whole entry, looked up): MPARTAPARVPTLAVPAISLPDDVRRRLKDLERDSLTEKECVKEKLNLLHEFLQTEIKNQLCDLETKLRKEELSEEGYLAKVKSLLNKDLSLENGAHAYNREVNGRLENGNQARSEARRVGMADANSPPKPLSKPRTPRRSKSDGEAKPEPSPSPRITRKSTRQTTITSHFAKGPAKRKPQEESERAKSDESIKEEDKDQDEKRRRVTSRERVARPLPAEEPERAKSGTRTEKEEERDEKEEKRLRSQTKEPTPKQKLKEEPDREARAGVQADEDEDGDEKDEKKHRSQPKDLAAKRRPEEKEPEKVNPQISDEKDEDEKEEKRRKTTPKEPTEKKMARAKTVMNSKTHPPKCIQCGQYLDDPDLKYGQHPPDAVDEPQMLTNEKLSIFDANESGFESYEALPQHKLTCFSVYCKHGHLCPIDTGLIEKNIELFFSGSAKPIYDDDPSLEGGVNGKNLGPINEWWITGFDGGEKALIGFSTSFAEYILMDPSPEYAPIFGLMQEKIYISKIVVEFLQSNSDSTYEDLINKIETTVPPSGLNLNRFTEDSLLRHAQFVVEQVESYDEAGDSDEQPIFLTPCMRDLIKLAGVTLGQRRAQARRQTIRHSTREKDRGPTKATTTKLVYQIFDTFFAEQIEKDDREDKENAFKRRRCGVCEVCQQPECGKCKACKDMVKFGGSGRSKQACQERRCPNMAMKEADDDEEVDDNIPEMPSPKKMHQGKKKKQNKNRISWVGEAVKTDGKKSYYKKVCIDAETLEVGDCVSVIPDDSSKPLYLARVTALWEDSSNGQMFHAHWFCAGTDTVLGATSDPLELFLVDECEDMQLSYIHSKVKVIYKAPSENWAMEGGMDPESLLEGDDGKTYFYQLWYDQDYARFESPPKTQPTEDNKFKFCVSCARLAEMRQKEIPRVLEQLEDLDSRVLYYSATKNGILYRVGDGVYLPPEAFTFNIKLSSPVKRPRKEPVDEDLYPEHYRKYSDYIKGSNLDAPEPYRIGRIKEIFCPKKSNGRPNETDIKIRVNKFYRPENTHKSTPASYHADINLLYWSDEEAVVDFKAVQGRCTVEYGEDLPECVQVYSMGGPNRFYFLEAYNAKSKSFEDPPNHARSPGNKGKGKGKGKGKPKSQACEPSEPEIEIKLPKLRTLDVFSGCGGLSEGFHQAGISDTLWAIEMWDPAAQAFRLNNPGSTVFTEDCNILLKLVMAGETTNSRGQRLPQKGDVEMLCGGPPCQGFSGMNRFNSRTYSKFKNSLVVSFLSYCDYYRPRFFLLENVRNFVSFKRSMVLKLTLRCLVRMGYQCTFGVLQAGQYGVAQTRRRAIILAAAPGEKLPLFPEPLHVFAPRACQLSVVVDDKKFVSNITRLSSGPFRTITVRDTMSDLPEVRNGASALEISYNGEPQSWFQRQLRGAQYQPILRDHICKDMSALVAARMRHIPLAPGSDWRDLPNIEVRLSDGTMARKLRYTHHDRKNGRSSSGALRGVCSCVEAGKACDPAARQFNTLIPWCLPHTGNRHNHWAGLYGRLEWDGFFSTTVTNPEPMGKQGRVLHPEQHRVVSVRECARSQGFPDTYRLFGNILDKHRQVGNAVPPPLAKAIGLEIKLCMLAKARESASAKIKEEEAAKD

Row | SMILES | EC50 [1] [nM] | DNMT1 BioChemical (pIC50 category) (DNMT1; [2]) | also measured
1 | CCc1c(C#N)c(SC(C(N)=O)c2ccccc2)nc(N(C)CC(=O)N(C)CC2(CO)CC2)c1C#N (stereo not drawn) [Example 609, 2-((6-((2-amino-2-oxo-1-phenylethyl)thio)-3,5-dicyano-4-ethylpyridin-2-yl)(methyl)amino)-N-((1-(hydroxymethyl)cyclopropyl)methyl)-N-methylacetamide] | < 316 | D (Category D: ≥6.5) | 
2 | N#Cc1c(SC(C(N)=O)c2ccccc2)nc(N2CC(NC(=O)CN)C2)c(C#N)c1C1CC1 (stereo not drawn) [Example 610, 2-amino-N-(1-(6-((2-amino-2-oxo-1-phenylethyl)thio)-3,5-dicyano-4-cyclopropylpyridin-2-yl)azetidin-3-yl)acetamide] | 1000 to 31600 | D (Category D: ≥6.5) | 
3 | N#Cc1c(SC(C(N)=O)c2ccccc2)nc(N2CC(NC(=O)[C@@H](N)CO)C2)c(C#N)c1C1CC1 (stereo partly drawn) [Example 611, (2S)-2-amino-N-(1-(6-((2-amino-2-oxo-1-phenylethyl)thio)-3,5-dicyano-4-cyclopropylpyridin-2-yl)azetidin-3-yl)-3-hydroxypropanamide] | 1000 to 31600 | D (Category D: ≥6.5) | 
4 | CCc1c(C#N)c(SC(C(N)=O)c2ccccc2)nc(N2CCC[C@H](N)C2)c1C#N (stereo partly drawn) [Example 612, 2-((6-((S)-3-aminopiperidin-1-yl)-3,5-dicyano-4-ethylpyridin-2-yl)thio)-2-phenylacetamide] | < 316 | D (Category D: ≥6.5) | 
5 | CCc1c(C#N)c(SC(C(N)=O)c2ccccc2)nc(N(C)CC(=O)N2CC[C@@H](O)C2)c1C#N (stereo partly drawn) [Example 613, 2-((3,5-dicyano-4-ethyl-6-((2-((R)-3-hydroxypyrrolidin-1-yl)-2-oxoethyl)(methyl)amino)pyridin-2-yl)thio)-2-phenylacetamide] | < 316 | D (Category D: ≥6.5) | 
6 | N#Cc1c(SC(C(N)=O)c2ccccc2)nc(N2CC(NC(=O)[C@H](N)CO)C2)c(C#N)c1C1CC1 (stereo partly drawn) [Example 614, (2R)-2-amino-N-(1-(6-((2-amino-2-oxo-1-phenylethyl)thio)-3,5-dicyano-4-cyclopropylpyridin-2-yl)azetidin-3-yl)-3-hydroxypropanamide] | 1000 to 31600 | D (Category D: ≥6.5) | 
7 | CCc1c(C#N)c(SC(C(N)=O)c2ccccc2)nc(N(C)CC(=O)N(C)CC(C)(C)CO)c1C#N (stereo not drawn) [Example 615, 2-((6-((2-amino-2-oxo-1-phenylethyl)thio)-3,5-dicyano-4-ethylpyridin-2-yl)(methyl)amino)-N-(3-hydroxy-2,2-dimethylpropyl)-N-methylacetamide] | < 316 | D (Category D: ≥6.5) | 
8 | CCc1c(C#N)c(SC(C(N)=O)c2ccccc2)nc(N(C)CC(=O)N2CC[C@H](O)C2)c1C#N (stereo partly drawn) [Example 616, 2-((3,5-dicyano-4-ethyl-6-((2-((S)-3-hydroxypyrrolidin-1-yl)-2-oxoethyl)(methyl)amino)pyridin-2-yl)thio)-2-phenylacetamide] | < 316 | D (Category D: ≥6.5) | 
9 | CCc1c(C#N)c(SC(C(N)=O)c2ccccc2)nc(N2CCC(F)(CN)CC2)c1C#N (stereo not drawn) [Example 618, 2-((6-(4-(aminomethyl)-4-fluoropiperidin-1-yl)-3,5-dicyano-4-ethylpyridin-2-yl)thio)-2-phenylacetamide hydrochloride] | < 316 | D (Category D: ≥6.5) | 
10 | CN(CC(=O)NCCN)c1nc(SC(C(N)=O)c2ccccc2)c(C#N)c(C2CC2)c1C#N (stereo not drawn) [Example 619, 2-((6-((2-amino-2-oxo-1-phenylethyl)thio)-3,5-dicyano-4-cyclopropylpyridin-2-yl)(methyl)amino)-N-(2-aminoethyl)acetamide hydrochloride] | 1000 to 31600 | D (Category D: ≥6.5) | 
11 | CCc1c(C#N)c(SC(C(N)=O)c2ccccc2)nc(N(C)CC(=O)N2CCCC2)c1C#N (stereo not drawn) [Example 620, 2-((3,5-dicyano-4-ethyl-6-(methyl(2-oxo-2-(pyrrolidin-1-yl)ethyl)amino)pyridin-2-yl)thio)-2-phenylacetamide] | < 316 | D (Category D: ≥6.5) | 
12 | CCc1c(C#N)c(SC(C(N)=O)c2ccccc2)nc(N(C)CC(=O)N2CCC(O)CC2)c1C#N (stereo not drawn) [Example 621, 2-((3,5-dicyano-4-ethyl-6-((2-(4-hydroxypiperidin-1-yl)-2-oxoethyl)(methyl)amino)pyridin-2-yl)thio)-2-phenylacetamide] | < 316 | D (Category D: ≥6.5) | 
13 | CCc1c(C#N)c(SC(C(N)=O)c2ccccc2)nc(N(C)CC(=O)N2CCNCC2)c1C#N (stereo not drawn) [Example 622, 2-((3,5-dicyano-4-ethyl-6-(methyl(2-oxo-2-(piperazin-1-yl)ethyl)amino)pyridin-2-yl)thio)-2-phenylacetamide] | < 316 | D (Category D: ≥6.5) | 
14 | CCc1c(C#N)c(SC(C(N)=O)c2ccccc2)nc(N(C)CC(=O)N2CCOCC2)c1C#N (stereo not drawn) [Example 623, 2-((3,5-dicyano-4-ethyl-6-(methyl(2-morpholino-2-oxoethyl)amino)pyridin-2-yl)thio)-2-phenylacetamide] | < 316 | D (Category D: ≥6.5) | 
15 | CCc1c(C#N)c(S[C@@H](C(N)=O)c2ccccc2)nc(N2CC[C@](O)(CN)C2)c1C#N [Example 624, (R)-2-((6-((S)-3-(aminomethyl)-3-hydroxypyrrolidin-1-yl)-3,5-dicyano-4-ethylpyridin-2-yl)thio)-2-phenylacetamide] |  | D (Category D: ≥6.5) | EPC ELISA (pEC50 category) [1]: B (Category B: 4.5 ≤ x < 6.0)
16 | CCc1c(C#N)c(SC(C(N)=O)c2ccccc2)nc(N2CC[C@H](ONC(=N)N)C2)c1C#N (stereo partly drawn) [Example 625, 2-((3,5-dicyano-4-ethyl-6-((S)-3-(guanidinooxy)pyrrolidin-1-yl)pyridin-2-yl)thio)-2-phenylacetamide] | < 316 | D (Category D: ≥6.5) | 
17 | CCc1c(C#N)c(SCc2ccc(OS(C)(=O)=O)cc2)nc(N2CCC(N)CC2)c1C#N [Example 626, 4-(((6-(4-aminopiperidin-1-yl)-3,5-dicyano-4-ethylpyridin-2-yl)thio)methyl)phenyl methanesulfonate 2,2,2-trifluoroacetate] | < 316 | D (Category D: ≥6.5) | average pIC50 against DNMT1 (DNMT1; breaklight assay and/or SPA assay, repeated experimental runs, methanesulfonate 2,2,2-trifluoroacetate): > 6.5; IC50 (DNMT1; breaklight assay and/or SPA assay, repeated experimental runs, read-out: average pIC50 against DNMT1 (converted)): 200 nM
18 | CCc1c(C#N)c(SC(C(N)=O)c2ccccc2)nc(N(C)CCNC(=O)C(C)(C)N)c1C#N (stereo not drawn) [Example 627, 2-amino-N-(2-((6-((2-amino-2-oxo-1-phenylethyl)thio)-3,5-dicyano-4-ethylpyridin-2-yl)(methyl)amino)ethyl)-2-methylpropanamide] | < 316 |  | IC50 (DNMT1; binned activity in either the breaklight or the SPA assay, read-out: DNMT1 BioChemical (pIC50 category) (converted)): < 316 nM
19 | CCc1c(C#N)c(SC(C(N)=O)c2ccccc2)nc(N(C)CCOCCN)c1C#N (stereo not drawn) [Example 628, 2-((6-((2-(2-aminoethoxy)ethyl)(methyl)amino)-3,5-dicyano-4-ethylpyridin-2-yl)thio)-2-phenylacetamide] | < 316 | D (Category D: ≥6.5) | 
20 | CCc1c(C#N)c(SC(C(N)=O)c2ccccc2)nc(N2CCC(NC(=O)CCCN)CC2)c1C#N (stereo not drawn) [Example 629, 4-amino-N-(1-(6-((2-amino-2-oxo-1-phenylethyl)thio)-3,5-dicyano-4-ethylpyridin-2-yl)piperidin-4-yl)butanamide formate] | 1000 to 31600 | D (Category D: ≥6.5) | 
21 | CCc1c(C#N)c(SC(C(N)=O)c2ccccc2)nc(N(C)CC(=O)NCCN)c1C#N (stereo not drawn) [Example 630, 2-((6-((2-amino-2-oxo-1-phenylethyl)thio)-3,5-dicyano-4-ethylpyridin-2-yl)(methyl)amino)-N-(2-aminoethyl)acetamide hydrochloride] | < 316 | D (Category D: ≥6.5) | 
22 | CCc1c(C#N)c(SC(C(N)=O)c2ccccc2)nc(N(C)CC(=O)N2CCC2)c1C#N (stereo not drawn) [Example 631, 2-((6-((2-(azetidin-1-yl)-2-oxoethyl)(methyl)amino)-3,5-dicyano-4-ethylpyridin-2-yl)thio)-2-phenylacetamide] | < 316 | D (Category D: ≥6.5) | 
23 | CCc1c(C#N)c(SC(C(N)=O)c2ccccc2)nc(N2CC[C@@](F)(CN)C2)c1C#N (stereo partly drawn) [Example 632, 2-((6-((R)-3-(aminomethyl)-3-fluoropyrrolidin-1-yl)-3,5-dicyano-4-ethylpyridin-2-yl)thio)-2-phenylacetamide] | 1000 to 31600 | D (Category D: ≥6.5) | 
24 | CCc1c(C#N)c(SC(C(N)=O)c2ccccc2)nc(N(C)CC(=O)N2CC(O)C2)c1C#N (stereo not drawn) [Example 633, 2-((3,5-dicyano-4-ethyl-6-((2-(3-hydroxyazetidin-1-yl)-2-oxoethyl)(methyl)amino)pyridin-2-yl)thio)-2-phenylacetamide] | < 316 | D (Category D: ≥6.5) | 
25 | CCc1c(C#N)c(SC(C(N)=O)c2ccccc2)nc(N2CCC(ONC(=N)N)CC2)c1C#N (stereo not drawn) [Example 634, 2-((3,5-dicyano-4-ethyl-6-(4-(guanidinooxy)piperidin-1-yl)pyridin-2-yl)thio)-2-phenylacetamide] | 1000 to 31600 | D (Category D: ≥6.5) | 
26 | CCc1c(C#N)c(SC(C(N)=O)c2ccccc2)nc(N2CCC[C@@H](NC)C2)c1C#N (stereo partly drawn) [Example 636, 2-((3,5-dicyano-4-ethyl-6-((R)-3-(methylamino)piperidin-1-yl)pyridin-2-yl)thio)-2-phenylacetamide] | < 316 | D (Category D: ≥6.5) | 

Reference: patent US10975056B2 (GlaxoSmithKline Intellectual Property Development Limited, priority 2016, dated 2021)
